Structures can show the parent of a compound that is named as a salt.
Tested on: mice
Experiment: SmartCube in vivo neuropharmacological behavioral assay
Details: for minimal effective dose: Mus musculus, ip, 0.25 h, dose having 50% or more total activity in SmartCube, i.p., read-out: MED (minimal effective dose); for AD: antidepressant (percent probability) / AG: analgesic (percent probability) / AP: antipsychotic (percent probability) / AX: anxiolytic (percent probability) / CE: cognitive enhancer (percent probability) / HA: hallucinogenic (percent probability) / MS: mood stabilizer (percent probability) / PS (percent probability) / SD: sedative hypnotic (percent probability) / SE: side effects (percent probability) / UN: uncharacterized CNS activity (percent probability) / XG: anxiogenic (percent probability): SmartCube, i.p. 15 min before test, result at the MED
Procedure: The compounds were evaluated for their CNS related properties (e.g., the treatment, prevention or diagnosis of CNS or CNS-related disorders and/or amelioration of symptoms) using neuropharmacological screening methods described in S. L. Roberts et al., Front. Neurosci. 2011, 5:103 (hereinafter referred to as “Roberts,” the contents of which are incorporated herein by reference in their entirety).
According to Roberts, intact systems are useful in detecting improvement in disease-relevant endpoints, because psychiatric diseases generally result from disorders of cell-cell communication or circuitry. The endpoints are typically behavioral in nature, often requiring human observation and interpretation. In order to test multiple compounds for behavioral effects relevant to neurological and psychiatric diseases and disorders, PsychoGenics, Inc. (Paramus, N.J. “PGI”) developed SmartCube®, an automated system in which behaviors of compound-treated mice are captured by digital video and analyzed with computer algorithms to facilitate testing of multiple compounds for behavioral effects relevant to psychiatric disease. (D. Brunner et al., Drug Discov. Today 2002, 7:S107-S112; Alexandrov et al., Eur. J. Pharmacol. 2015, 753:127-134; the contents of each of which are incorporated herein by reference in their entirety).
The SmartCube® system is described in Example 2.2 of U.S. Pat. No. 9,758,529 and Example 289 of WIPO Publication No. WO2018/023070, the contents of each of which are incorporated herein by reference in their entirety.
According to the present disclosure, compounds identified may be evaluated using the SmartCube® system. The results of such analysis correlate certain patterns or combinations of behaviors to CNS effects along a percent probability scale of 0-100 where zero (0) reflects the limit of quantitation (LOQ).
The compounds of the present disclosure were evaluated for their CNS related properties (e.g., the treatment, prevention or diagnosis of CNS or CNS-related disorders and/or amelioration of symptoms) using neuropharmacological screening methods described in S. L. Roberts et al., Front. Neurosci. 2011, 5:103 (hereinafter referred to as “Roberts,” the contents of which are incorporated herein by reference in their entirety).
The SmartCube® system described herein was utilized to compare the behavioral signature of a test compound to a database of behavioral signatures obtained using a large set of diverse reference compounds (including but not limited to antipsychotics, anxiolytics, antidepressants and bipolar disorder medicine), thereby predicting the neuropharmacological effects of a test compound by similarity to major classes of compounds. It produces an activity signature indicating the probability that the activity of the test compound at the administered dose matches a given class of neuropharmacological agents. The test compound is simultaneously compared against multiple classes of agents; thus, a separate probability is generated for each behavioral effect measured (such as but not limited to anxiolytic activity and analgesic activity).
The compounds of the present disclosure were dissolved in a mixture of Pharmasolve™ (N-methyl-2-pyrrolidone (NMP)) and were injected i.p. 15 min. before the behavioral test. For each compound, injections were administered at different dose levels (e.g., 0.3, 1, 3, 10 and 30 mg per kg (mpk)). A compound's minimal effective dose (MED; see Table 3) is a measure of the compound's potency. The MED was defined as the dose (in mpk) having 50% or more total activity in SmartCube®. For each behavioral effect measured, results at the MED are presented. CNS activities of the compounds were recorded (see Table 2). In Table 1, a key to the percent probabilities (probability ×100) for each behavioral effect (“X”) are defined provided, where LOQ is the limit of quantification.

Row | SMILES | minimal effective dose [mg/kg] | AD: antidepressant (percent probability) | AG: analgesic (percent probability) | AP: antipsychotic (percent probability) | AX: anxiolytic (percent probability) | CE: cognitive enhancer (percent probability) | HA: hallucinogenic (percent probability) | MS: mood stabilizer (percent probability) | PS (percent probability) | SD: sedative hypnotic (percent probability) | SE: side effects (percent probability) | UN: uncharacterized CNS activity (percent probability) | XG: anxiogenic (percent probability)
1 | c1ccc(CCN2C3CCCC2c2ccccc23)cc1 [Compound 5, 12-(2-Phenylethyl)-12-azatricyclo[6.3.1.0^2,7]dodeca-2,4,6-triene] | 10 to 30 | ++ (5% ≤ X < 25%) | + (LOQ ≤ X < 5%) | ++ (5% ≤ X < 25%) | ++ (5% ≤ X < 25%) | + (LOQ ≤ X < 5%) | + (LOQ ≤ X < 5%) | + (LOQ ≤ X < 5%) | + (LOQ ≤ X < 5%) | + (LOQ ≤ X < 5%) | + (LOQ ≤ X < 5%) | +++ (25% ≤ X < 50%) | + (LOQ ≤ X < 5%)
2 | c1ccc2c(c1)C1CCCC2N1C1CCCCC1 [Compound 13, 12-Cyclohexyl-12-azatricyclo[6.3.1.0^2,7]dodeca-2,4,6-triene hydrochloride] | 10 to 30 | +++ (25% ≤ X < 50%) | + (LOQ ≤ X < 5%) | + (LOQ ≤ X < 5%) | ++ (5% ≤ X < 25%) | + (LOQ ≤ X < 5%) | + (LOQ ≤ X < 5%) | + (LOQ ≤ X < 5%) | ++ (5% ≤ X < 25%) | + (LOQ ≤ X < 5%) | + (LOQ ≤ X < 5%) | + (LOQ ≤ X < 5%) | + (LOQ ≤ X < 5%)
3 | FC1CCC2NC1c1ccccc12 (stereo not drawn) [Compound 30, 9-Fluoro-12-azatricyclo[6.3.1.0^2,7]dodeca-2,4,6-triene hydrochloride] | > 30 | + (LOQ ≤ X < 5%) | + (LOQ ≤ X < 5%) | + (LOQ ≤ X < 5%) | ++ (5% ≤ X < 25%) | + (LOQ ≤ X < 5%) | + (LOQ ≤ X < 5%) | + (LOQ ≤ X < 5%) | + (LOQ ≤ X < 5%) | + (LOQ ≤ X < 5%) | + (LOQ ≤ X < 5%) | + (LOQ ≤ X < 5%) | + (LOQ ≤ X < 5%)
4 | CC([C@H](C)F)N1C2CCCC1c1ccccc12 (stereo in doubt) [Compound 24, 12-(3-Fluorobutan-2-yl)-12-azatricyclo[6.3.1.0^2,7]dodeca-2,4,6-triene hydrochloride] | 10 to 30 | +++ (25% ≤ X < 50%) | + (LOQ ≤ X < 5%) | + (LOQ ≤ X < 5%) | + (LOQ ≤ X < 5%) | + (LOQ ≤ X < 5%) | + (LOQ ≤ X < 5%) | + (LOQ ≤ X < 5%) | ++ (5% ≤ X < 25%) | + (LOQ ≤ X < 5%) | + (LOQ ≤ X < 5%) | + (LOQ ≤ X < 5%) | + (LOQ ≤ X < 5%)
5 | CC[C@H](C)N1C2CCCC1c1ccccc12 [Compound 26, 12-[(2S)-Butan-2-yl]-12-azatricyclo[6.3.1.0^2,7]dodeca-2,4,6-triene hydrochloride] | 1 to 10 | ++++ (50% ≤ X < 100%) | + (LOQ ≤ X < 5%) | + (LOQ ≤ X < 5%) | + (LOQ ≤ X < 5%) | + (LOQ ≤ X < 5%) | ++ (5% ≤ X < 25%) | + (LOQ ≤ X < 5%) | ++ (5% ≤ X < 25%) | + (LOQ ≤ X < 5%) | + (LOQ ≤ X < 5%) | + (LOQ ≤ X < 5%) | + (LOQ ≤ X < 5%)
6 | c1ccc2c(c1)C1CCCC2N1C1CCCC1 [Compound 4, 12-Cyclopentyl-12-azatricyclo[6.3.1.0^2,7]dodeca-2,4,6-triene hydrochloride] | 1 to 10 | +++ (25% ≤ X < 50%) | ++ (5% ≤ X < 25%) | + (LOQ ≤ X < 5%) | ++ (5% ≤ X < 25%) | + (LOQ ≤ X < 5%) | + (LOQ ≤ X < 5%) | + (LOQ ≤ X < 5%) | ++ (5% ≤ X < 25%) | + (LOQ ≤ X < 5%) | + (LOQ ≤ X < 5%) | + (LOQ ≤ X < 5%) | + (LOQ ≤ X < 5%)
7 | CC([C@@H](C)F)N1C2CCCC1c1ccccc12 (stereo in doubt) [Compound 23, 12-(3-Fluorobutan-2-yl)-12-azatricyclo[6.3.1.0^2,7]dodeca-2,4,6-triene hydrochloride] | > 30 | + (LOQ ≤ X < 5%) | + (LOQ ≤ X < 5%) | + (LOQ ≤ X < 5%) | + (LOQ ≤ X < 5%) | + (LOQ ≤ X < 5%) | + (LOQ ≤ X < 5%) | + (LOQ ≤ X < 5%) | + (LOQ ≤ X < 5%) | + (LOQ ≤ X < 5%) | + (LOQ ≤ X < 5%) | ++ (5% ≤ X < 25%) | + (LOQ ≤ X < 5%)
8 | Fc1cc2c(cc1F)C1CCCC2N1 [Compound 40, 4,5-Difluoro-12-azatricyclo[6.3.1.0^2,7]dodeca-2,4,6-triene hydrochloride] | > 30 | ++ (5% ≤ X < 25%) | ++ (5% ≤ X < 25%) | + (LOQ ≤ X < 5%) | ++ (5% ≤ X < 25%) | + (LOQ ≤ X < 5%) | + (LOQ ≤ X < 5%) | + (LOQ ≤ X < 5%) | ++ (5% ≤ X < 25%) | + (LOQ ≤ X < 5%) | + (LOQ ≤ X < 5%) | + (LOQ ≤ X < 5%) | + (LOQ ≤ X < 5%)
9 | c1ccc2c(c1)C1CCCC2N1C1CC1 [Compound 15, 12-Cyclopropyl-12-azatricyclo[6.3.1.0^20.7]dodeca-2,4,6-triene hydrochloride] | 10 to 30 | ++++ (50% ≤ X < 100%) | ++ (5% ≤ X < 25%) | + (LOQ ≤ X < 5%) | ++ (5% ≤ X < 25%) | + (LOQ ≤ X < 5%) | + (LOQ ≤ X < 5%) | + (LOQ ≤ X < 5%) | ++ (5% ≤ X < 25%) | + (LOQ ≤ X < 5%) | + (LOQ ≤ X < 5%) | + (LOQ ≤ X < 5%) | ++ (5% ≤ X < 25%)
